# Experimental data: patent publication US20160139132A1, “Method of Diagnosis or Prognosis of a Neoplasm Comprising Determining the Level of Expression of a Protein in Stromal Cells Adjacent to the Neoplasm” (Thomas Jefferson University, priority 2009, published 2016)
# Assays:
# neovascularization = conditions: Oikawa (1988); cited from earlier work
# [1] = test system: MDA-MB-231 breast cancer cells co-injected with Cav-1-deficient stromal fibroblasts; assay: Human tumor xenograft: nude mice co-injected with MDA-MB-231 cells and Cav-1-deficient stromal fibroblasts, treated with glycolysis inhibitors; type: in vivo; conditions: given individually, dosage of 200 mg/kg
# Protocol: Treatment with Glycolysis Inhibitors Functionally Blocks Cancer-Associated Fibroblast Induced Breast Cancer Tumor Growth. […] Mice co-injected with Cav-1-deficient stromal fibroblasts and MDA-MB-231 breast cancer cells were treated with glycolysis inhibitors. The efficacy of two well-established glycolysis inhibitors, namely 2-DG (2-deoxy-D-glucose) and DCA (dichloro-acetate), individually or in combination were tested.
# To provide additional experimental validation for the idea that an absence of stromal Cav-1 promotes breast cancer tumor growth and angiogenesis, a 2-component cell-system using xenografts in immuno-deficient female nude mice was developed. Briefly, the flanks of nude mice were injected with a mixture of 1) MDA-MB-231 cells (a highly aggressive human breast cancer cell line; 1.0×10-6 cells) and 2) stromal fibroblasts, derived from either WT or Cav-1 (−/−) null mice (0.3×10-6 cells). After 3 weeks, nude mice were sacrificed and breast cancer-derived tumors were subjected to analysis for growth (tumor weight and volume measurements) and immuno-histochemistry with markers of angiogenesis, such as CD31 (a.k.a, PECAM1).
# In this two-component system, nude mice are co-injected with i) human breast cancer ceils (MDA-MB-231), and ii) stromal fibroblasts (WT versus Cav-1 (−/−) deficient). […]
# [2] = test system: PD-ECGF/TP transfected cells; conditions: transfected compared with untransfected wild-type cells; Haraguchi (1993); cited from earlier work
# [3] = test system: Cav-1 in stromal fibroblasts co-cultured with MCF-7 cells; assay: Co-culture of MCF-7 breast cancer cells with normal human fibroblasts: Cav-1 down-regulation; type: cell-based; conditions: co-culture with MCF-7 cells
# From the text: Using this system, it was observed that within 5 days of co-culture MCF-7 cells down-regulate the expression of Cav-1 in adjacent stromal fibroblasts. This occurs via the degradation of Cav-1 in lysosomal structures, and can be inhibited by chloroquine, an anti-lysomal agent. Most importantly, MCF-7 cells induce oxidative stress in the adjacent fibroblasts via the over-production of reactive oxygen species (ROS). ROS, in turn, is known to stabilize and activate certain transcription factors, such as NFkB and HIF. NFkB- and HIF-are the master regulators of “inflammation” and “hypoxia/aerobic glycolysis” in the tumor microenvironment. Thus, in order to detect the activation of NFkB and HIF only in the fibroblast cell population, two different fibroblast cell lines engineered to express either a NFkB-luciferase or HIF-luciferase transcriptional reporter were used. […] As such, NFkB is activated first, while HIF is activated on day 4 and day 5 of coculture, coincident with Cav-1 down-regulation. Thus, cancer cells induce the Warburg effect in adjacent stromal fibroblasts via the activation of NFkB and HIF-target genes, leading to inflammation and aerobic glycolysis. These findings provide a mechanistic basis for the “Reverse Warburg Effect”, and a new high-throughput drug-screening assay for the identification of novel compounds that block the “Reverse Warburg Effect”.
# breast cancer patients = assay: Progression-free survival of breast cancer patients (tissue microarray cohort) by stromal Cav-1 and tamoxifen use; type: in vivo, human; conditions: Tamoxifen use Yes vs No (ref); adjusted for T stage, N stage, Cav-1 score
# Protocol: Breast tissues for tissue microarray construction were obtained from the Surgical Pathology files at the University of Michigan with Institutional Review Board (IRB) approval. The TMA contained tissues derived from 154 largely consecutive patients with invasive carcinomas of the breast, with follow-up information treated at the University of Michigan from 1987-1991. Clinical and pathological variables were determined following well-established criteria. All invasive carcinomas were graded according to the method described by Elston and Ellis 17; Lymphovascular Invasion (LV1) was classified as either present or absent. […]
# Cav-1 expression in the tumor stroma was assessed by employing a standard immuno-peroxidase method (DakoCytornation LSAB2 System-HRP, Carpinteria, Calif.), using rabbit polyclonal antl-Cav-1 TgG (N-20; directed against Ntenninal residues 2-21 of human Cav-1; Santa Cruz Biotechnology, Santa Cruz, Calif.; dilution 1:500). The staining was scored semi-quantitatively as negative (0; no staining), weak (1; either diffuse weak staining or strong staining in less than 30% of stromal cells per core) and strong (2; defined as strong staining of 30% or more of the stromal cells). […]
# For each patient, the date of breast cancer diagnosis, date of last follow-up, vital status at last follow-up, causes of death (breast cancer or other), and breast cancer recurrence, were recorded. […]
structure (smiles),measurement,setting,value
"CC(=O)O[C@]1(C(C)=O)CC[C@H]2[C@@H]3C[C@H](C)C4=CC(=O)CC[C@]4(C)[C@H]3CC[C@@]21C [MPA, medroxyprogesterone acetate]",neovascularization,neovascularization,potently inhibited
"O=CC[C@@H](O)[C@H](O)[C@H](O)CO [2-DG, 2-deoxy-D-glucose]",effect on tumor growth,[1],no effect
"O=C(O)C(Cl)Cl [DCA, dichloro-acetate]",effect on tumor growth,[1],no effect
"C[C@H]1O[C@@H](n2cc(F)c(=O)[nH]c2=O)[C@H](O)[C@@H]1O [5′DFUR, 5′-deoxy-5-fluorouridine]",antitumor effect,[2],dramatic enhancement of antitumor effect
CCN(CC)CCCC(C)Nc1ccnc2cc(Cl)ccc12 (stereo not drawn) [chloroquine],degradation of Cav-1 in lysosomal structures (Cav-1 down-regulation in adjacent stromal fibroblasts),[3],inhibited
CC/C(=C(\c1ccccc1)c1ccc(OCCN(C)C)cc1)c1ccccc1 [Tamoxifen],Cox regression of Progression-Free Survival (PFS): Coefficient,breast cancer patients,−0.476
